Test results taken from publication PMC10828444, “Selective inhibition of overactive warmth-sensitive Ca^2+-permeable TRPV3 channels by antispasmodic agent flopropione for alleviation of skin inflammation” (The Journal of Biological Chemistry, 2023).

What was measured:
[1] = system: DNFB-induced ear swelling; test: Mouse model of ear swelling induced by DNFB; type: in vivo, C57BL/6J mice; conditions: topical 0.1, 1, 10 mM on right ear for 4 days, vs DNFB alone
Experimental: Mice were placed in a gas anesthesia device (SurgiVet) for anesthesia before the hair on the back was removed with a razor, followed by the application of an appropriate amount of hair removal cream to gently shave off the remaining hair. For generation of atopic dermatitis and ear swelling, chemical skin sensitizer DNFB (1-Fluoro-2,4-dinitrobenzene), commonly known as Sanger’s Reagent, was dissolved in a solvent (acetone/olive oil = 4/1, v/v) and 0.5% DNFB in 100 μl was applied once topically to the back and right ear for skin sensitization 1 day after acclimatization for hair removal ([43]) without any treatment for next 3 days. On the fifth and sixth days, 0.2% DNFB in 50 μl was applied topically once a day for 2 days for challenge before different concentrations of flopropione in 100 μl were topically applied once a day for four consecutive days. […]
The score contents and criteria include (1): skin erythematous/bleeding (2), skin scratches/erosion (3), skin edema (4), skin scaling or lichenoid change ([44]). Each symptom was scored from 0 to 3 (none, 0; mild, one; moderate, two; severe, (3). The final score was defined as the sum of individual scores on a scale from 0 to 12. Mouse ear thickness was measured once a day for continuous 5 days with the first measurement of ear thickness 30 min after the last application of 0.2% DNFB using vernier caliper.

hTRPV3 R509A mutant = molecular target: T1, hTRPV3 R509A mutant (Homo sapiens, UniProt Q8NET8, R509A); test: Whole-cell recordings of TRPV3 R509A mutant; type: cell-based; conditions: 100 μM flopropione, 2-APB
T1 construct: expressed in transfected cells; host or cells: HEK293
T1 sequence (Q8NET8 1-790 R509A): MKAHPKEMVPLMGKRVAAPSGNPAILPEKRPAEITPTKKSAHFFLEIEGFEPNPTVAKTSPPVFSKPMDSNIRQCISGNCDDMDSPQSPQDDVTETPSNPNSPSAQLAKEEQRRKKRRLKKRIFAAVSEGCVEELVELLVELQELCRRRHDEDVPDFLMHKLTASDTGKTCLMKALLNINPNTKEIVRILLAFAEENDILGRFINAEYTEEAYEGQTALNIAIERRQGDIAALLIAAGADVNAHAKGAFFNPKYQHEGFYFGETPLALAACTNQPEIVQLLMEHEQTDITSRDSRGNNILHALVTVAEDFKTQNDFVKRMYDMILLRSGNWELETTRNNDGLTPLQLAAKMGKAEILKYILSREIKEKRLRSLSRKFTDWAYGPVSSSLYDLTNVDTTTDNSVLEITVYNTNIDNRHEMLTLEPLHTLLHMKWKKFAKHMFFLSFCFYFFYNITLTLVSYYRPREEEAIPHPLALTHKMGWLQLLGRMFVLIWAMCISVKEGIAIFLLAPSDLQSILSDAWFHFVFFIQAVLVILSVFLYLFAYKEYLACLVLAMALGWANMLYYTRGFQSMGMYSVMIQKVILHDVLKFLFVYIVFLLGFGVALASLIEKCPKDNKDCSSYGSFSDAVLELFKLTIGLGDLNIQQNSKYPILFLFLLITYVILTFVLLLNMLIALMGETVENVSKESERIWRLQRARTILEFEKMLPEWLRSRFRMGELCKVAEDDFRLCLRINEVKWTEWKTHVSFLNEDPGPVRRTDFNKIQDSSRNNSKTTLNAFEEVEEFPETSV
Experimental: HEK293 cells were cultured in Dulbecco’s modified Eagle’s medium (DMEM, Gibco) containing 4.5 g/L D-glucose supplemented with 10% fetal bovine serum based at 37 °C with 5% CO2. For whole-cell patch-clamp recordings, cells were grown in glass coverslips for 24 h before transient transfections with 3000 ng cDNAs of hTRPV3 (gene accession number BC104866.1), hTRPV1 (accession number NM_080704.3), mTRPV2 (accession number NM_011706.2), hTRPV4 (accession number NM_021625.5), hTRPA1 (accession number NM_007332.3) and hTRPM8 (accession number NM_024080.5) into HEK293 cells grown in a 35-mm cell culture dish using Lipofectamine 2000 (Invitrogen). Cells were used 18 ∼ 24 h after transfection. All WT or mutant hTRPV3 plasmids were validated by DNA sequencing.
Whole-cell patch clamp recordings of wild-type and mutants were carried out at room temperature using the HEKA EPC10 amplifier powered by PatchMaster software (HEKA) or MultiClamp 700B amplifier driven by Clampex 11.0.3 software. The borosilicate glass pipettes were pulled and fire-polished to 3∼6 MΩ using a DMZ universal electrode puller (Zeitz-Instruments, GmbH). Pipette solution and bath solution both contained (in mM): 130 NaCl, three HEPES, and 0.2 EDTA (pH = 7.4). Cell membrane potential was held at 0 mV, currents were recorded at a voltage ramp from −100 to +100 mV for 500-ms and analyzed at ±80 mV.

SMILES: CCC(=O)c1c(O)cc(O)cc1O [flopropione]
- ear swelling (ear thickness, vernier caliper) [1]: significantly reduced ear swelling
- sensitivity of R509A mutant to flopropione inhibition (hTRPV3 R509A mutant): maintained the sensitivity to flopropione inhibition
